Read-outs that look alike come from different tables or passages of the source. Some results are limits rather than exact numbers.

As a reminder, the IC50 is the point on the concentration scale where inhibition reaches its midpoint.

One assay relates to HEK293T-eGFP cells. Briefly: MTT cytotoxicity assay, 72 hours. It counts as cell-based. As to the method:
Cells were cultured for 16–24 hours under standard culturing conditions (5% CO2, 37 °C). […] All dose ranges were added in duplicate, followed by 72 hours of incubation. Cell viability was determined using a tetrazolium based metabolic activity assay. Briefly, 5 µL of 3-(4.5-dimethylthiazol-2-yl)-2,5-diphenyltetrazolium bromide (MTT) solution (5 mg/mL MTT in sterile PBS) was added per well, and the microplates were incubated for 4 hours at 37°C and 5% CO2 in a cell culture incubator. Next, 40 µL of 10% SDS/0.01 M HCl was added per well, and the microplates were incubated for 24–72 hours at 37°C and 5% CO2 in a cell culture incubator. Subsequently the absorbance at 570 nm and background absorbance at 720 nm were measured using the Spectramax i3x (Molecular Devices, San Jose, USA). Subsequently, the absorbance values at 720 nm were subtracted from the absorbance values at 570 nm, and the corresponding values were used to plot dose-response curves.
The data was normalized to the DMSO-treated cells (defined as 100% viability) and the empty controls (defined as 0% viability).
In general terms: Tetrazolium assays rely on reduction of a dye to a coloured formazan, in cell work by metabolically active cells.

Assay [1] deals with eGFP locus in HEK293T-eGFP cells (HDR vs NHEJ). Briefly: CRISPR gene-editing outcome (eGFP to BFP conversion, flow cytometry) with CRISPR-Cas9 LNP. It is filed as cell-based. To be noted: for preferential activation of HDR over NHEJ in hit validation: narrowed dose range, triplicate, vs LNP only; for effect on the NHEJ and HDR outcomes: validated hits, Fig 2B; for effect on relative HDR in the compound screen: up to three dosages based on IC50, single measurements. As to the method: Compounds were assessed in three dosages to assess the effects on gene-editing efficacy. […] Cells were incubated with these compounds for 24 hours prior to LNP addition. LNP were added to all wells at a final concentration of 20 nM SpCas9 to achieve robust genome editing. After 24 hours of co-incubation, medium was refreshed and cells were transferred to a 48 well plate for further culturing. Six days after adding compounds, cells were processed for flow cytometric analysis of the gene knock-out and gene-correction efficiencies. Briefly, a ssDNA template was used carrying two nucleotide mutations to convert the eGFP sequence to that of a blue fluorescent protein (BFP), as well as mutating the PAM sequence to ensure robust HDR. The sgRNA spacer sequence was 5’-[…]-3’, and the HDR template sequence was 5’-[…]-3’.
Flow cytometry using the BD FACS Canto II (Becton Dickinson) was used to determine cells undergoing NHEJ (eGFP and BFP negative population) and HDR (eGFP negative, BFP positive). Data analysis was performed using Flowlogic (version 8.7). Graphpad PRISM (version 9.3.1) was used for statistical analysis and preparing graphs.
The percentage of HDR relative to total gene editing in a given cell population (hereafter named Relative HDR (% of edited cells) was calculated by dividing the absolute HDR population by the sum of gene-edited cells found in the BFP+ and eGFP- gates. Absolute HDR (% of all cells) and Absolute NHEJ (% of all cells) were analyzed where appropriate. The gating strategy is given in S1 Fig in S1 File.
(Flow cytometry measures light scatter and fluorescence of single cells or particles in a stream.)

Setting [2] is: 72 h, HEK293T-eGFP cells, 3 days of incubation, MTT, read-out: IC50.
Setting [3] is: HEK293T-eGFP cells, 3 days of incubation, MTT, read-out: IC50.

Turning to `O=C(NC1CCNCC1)c1[nH]ncc1NC(=O)c1c(Cl)cccc1Cl` [AT7519], in the assay on HEK293T-eGFP cells (setting [2]), the IC50 was found to be 438 nM.
On the same count and under the same terms, next, `CCN1CCN(Cc2ccc(Nc3ncc(F)c(-c4cc(F)c5nc(C)n(C(C)C)c5c4)n3)nc2)CC1` [Abemaciclib]: 1070 nM; `C=CCn1c(=O)c2cnc(Nc3ccc(N4CCN(C)CC4)cc3)nc2n1-c1cccc(C(C)(C)O)n1` [Adavosertib]: 227 nM.
Take `CNc1nc(-c2nc3ccc(N4CCN(C)CC4)cc3n2Cc2ccccc2)cn2c(C)nnc12` [BI 894999]: in the assay on HEK293T-eGFP cells (setting [2]), the IC50 was 582 nM.
With `O=C(/C=C/c1cccc(S(=O)(=O)Nc2ccccc2)c1)NO` [Belinostat], in assay [1], the “preferential activation of HDR over NHEJ in hit validation” value is “strong dose-dependent preferential activation of HDR over NHEJ”; the “effect on the NHEJ and HDR outcomes” value is “increased both NHEJ and HDR”. For the same molecule, the IC50 in the assay on HEK293T-eGFP cells (setting [2]) stood at 1100 nM.
In the case of `CNCc1ccc(-c2cc(-c3nc(-c4ccc(S(=O)(=O)C(C)C)cc4)cnc3N)on2)cc1` [Berzosertib], in the assay with HEK293T-eGFP cells (setting [2]), the IC50 amounted to 335 nM.
As for `Cc1sc2c(c1C)C(c1ccc(Cl)cc1)=N[C@@H](CC(=O)Nc1ccc(O)cc1)c1nnc(C)n1-2` [Birabresib], the IC50 with HEK293T-eGFP cells (setting [2]) amounted to 540 nM.
As for `Cc1sc2c(c1C)C(c1ccc(Cl)cc1)=N[C@@H](CC(N)=O)c1nnc(C)n1-2` [CPI-203], the IC50 in the assay with HEK293T-eGFP cells (setting [3]) was 651 nM.
For the molecule `CC(C)c1c(-c2ccccc2)[nH]c2c(C#N)cnn2c1=O` [CPI-455], the IC50 in the assay on HEK293T-eGFP cells (setting [3]) is more than 10000 nM.
Regarding `CC[C@H](Nc1nc(NCc2cnc(C)cc2C)c2ncn(C(C)C)c2n1)[C@@H](C)O` [CYC065], the IC50 in the assay on HEK293T-eGFP cells (setting [2]) was 255 nM.
In the case of `C[C@@H]1COCCN1c1cc(C2([S@](C)(=N)=O)CC2)nc(-c2cc[nH]c3nccc2-3)n1` [Ceralasertib], the IC50 with HEK293T-eGFP cells (setting [2]) stood at 1840 nM.
Take `Nc1ccccc1NC(=O)c1ccc(CNC(=O)OCc2cccnc2)cc1` [Entinostat]: the “effect on relative HDR in the compound screen” value (“effect on relative HDR” for short) in assay [1] is reported as “did not show the same effect”. In the assay with HEK293T-eGFP cells (setting [2]), the IC50 amounted to 3560 nM.
As for `Nc1cc(F)ccc1NC(=O)c1ccc(CNC(=O)/C=C/c2cccnc2)cc1` [Epidaza], the “effect on relative HDR” value in assay [1] is “did not show an effect towards improving HDR”. Further, the IC50 with HEK293T-eGFP cells (setting [2]) is more than 10000 nM.
With `C[C@@H](Oc1cc(-n2cnc3ccc(CN4CCN(C)CC4)cc32)sc1C(N)=O)c1ccccc1C(F)(F)F` [GSK461364], in the assay on HEK293T-eGFP cells (setting [2]), the 50% inhibitory concentration (IC50) turned out to be 8.35 nM.
For the molecule `CCn1cc(-c2ccnc3[nH]c(-c4cccc(CN(C)C)c4)cc23)c(-c2ccc(NC(=O)N(C)C)cc2)n1` [GSK1070916], the “effect on relative HDR” value in assay [1] is “did not show an effect toward relative HDR activation”. Also, in the assay with HEK293T-eGFP cells (setting [2]), the IC50 was found to be 1390 nM.
With `Cc1ncc(Cl)cc1NCc1ccc(C(=O)N[C@@H](CC2CCCC2)C(=O)NC2CC2)s1` [GSK2830371], the IC50 in the assay on HEK293T-eGFP cells (setting [2]) is more than 10000 nM.
Regarding `CCn1cc(-c2cccc(C(F)(F)F)c2)c2sc(C(=N)NC3CCS(=O)(=O)CC3)cc2c1=O` [I-BRD9], the IC50 in the assay on HEK293T-eGFP cells (setting [3]) was found to be 8940 nM.
As to `Cc1sc2c(c1C)C(c1ccc(Cl)cc1)=N[C@@H](CC(=O)O)c1nnc(C)n1-2` [JQ-1 COOH], the IC50 with HEK293T-eGFP cells (setting [3]) is more than 10000 nM.
`O=c1cc(-c2cccc3c2Sc2ccccc2S3)oc(N2CCOCC2)c1` [KU-55933]: the IC50 in the assay on HEK293T-eGFP cells (setting [2]) was more than 10000 nM.
Regarding `C[C@@H]1CN(CC(=O)Nc2ccc3c(c2)Cc2cccc(-c4cc(=O)cc(N5CCOCC5)o4)c2S3)C[C@H](C)O1` [KU-60019], in the assay on HEK293T-eGFP cells (setting [2]), the IC50 is more than 10000 nM.
Regarding `Cc1cc(C)cc(C(=O)NOCCCCCC(=O)NO)c1` [LMK-235], the IC50 with HEK293T-eGFP cells (setting [3]) is 1790 nM.
In the case of `O=C(c1cc(Cc2n[nH]c(=O)c3ccccc23)ccc1F)N1CCN(C(=O)C2CC2)CC1` [Olaparib], the half-maximal inhibitory concentration (IC50) in the assay on HEK293T-eGFP cells (setting [2]) is more than 10000 nM.
Turning to `COc1ccc(Cn2ccc3ccc(C(=O)NO)cc32)cc1` [PCI-34051], the IC50 in the assay on HEK293T-eGFP cells (setting [3]) was more than 10000 nM.
As to `CC(=O)O[C@H]1C(=O)[C@@]2(C)[C@H]([C@H](OC(=O)c3ccccc3)[C@]3(O)C[C@H](OC(=O)[C@H](O)[C@@H](NC(=O)c4ccccc4)c4ccccc4)C(C)=C1C3(C)C)[C@]1(OC(C)=O)CO[C@@H]1C[C@@H]2O` [Paclitaxel], the IC50 with HEK293T-eGFP cells (setting [2]) turned out to be 3.12 nM.
Same read-out and setting: the figure for `C[C@]12CCCN1CC1=NNC(=O)c3cc(F)cc4[nH]c2c1c34` [Pamiparib] is more than 10000 nM.
On to `Cc1[nH]c2ccccc2c1CCNCc1ccc(/C=C/C(=O)NO)cc1` [Panobinostat], for which, in assay [1], the “effect on relative HDR” value was “did not show the same effect”. Also, in the assay with HEK293T-eGFP cells (setting [2]), the IC50 worked out at 30.6 nM.
Consider `NS(=O)(=O)OC[C@@H]1C[C@@H](n2ccc3c(N[C@H]4CCc5ccccc54)ncnc32)C[C@@H]1O` [Pevonedistat], for which the IC50 in the assay with HEK293T-eGFP cells (setting [2]) worked out at 4740 nM.
With `COc1cccc(OCCCN)c1-c1cc(Nc2cnc(C#N)cn2)n[nH]1` [Prexasertib], the IC50 with HEK293T-eGFP cells (setting [2]) was 5.33 nM.
Regarding `CN(C)C(=O)c1cc2cnc(Nc3ccc(N4CCNCC4)cn3)nc2n1C1CCCC1` [Ribociclib], the IC50 in the assay with HEK293T-eGFP cells (setting [2]) was more than 10000 nM.
In the case of `C/C=C1\NC(=O)[C@H]2CSSCC/C=C/[C@H](CC(=O)N[C@H](C(C)C)C(=O)N2)OC(=O)[C@H](C(C)C)NC1=O` [Romidepsin], the “effect on relative HDR” value in assay [1] was “strongly inhibited HDR”. For the same molecule, the IC50 with HEK293T-eGFP cells (72 h) stood at 16.4 nM.
As for `CNCc1ccc(-c2[nH]c3cc(F)cc4c3c2CCNC4=O)cc1` [Rucaparib], in assay [1], the “preferential activation of HDR over NHEJ in hit validation” value is “strong dose-dependent preferential activation of HDR over NHEJ”; the “effect on the NHEJ and HDR outcomes” value is “inhibited NHEJ and improved HDR”. For the same molecule, in the assay with HEK293T-eGFP cells (setting [2]), the IC50 is more than 10000 nM.
In the case of `C[C@@H](NC(=O)c1ncnc(N)c1Cl)c1ncc(C(=O)Nc2cc(C(F)(F)F)c(Cl)cn2)s1` [TAK-580], in the assay with HEK293T-eGFP cells (setting [2]), the IC50 is more than 10000 nM.
Take `CN(C)C/C=C/C(=O)Nc1ccc(C(=O)Nc2cccc(Nc3ncc(Cl)c(-c4c[nH]c5ccccc45)n3)c2)cc1` [THZ1]: the IC50 with HEK293T-eGFP cells (setting [3]) is 37.1 nM.
`CN(C)C/C=C/C(=O)Nc1ccc(C(=O)N2CCC[C@@H](Nc3ncc(Cl)c(-c4c[nH]c5ccccc45)n3)C2)cc1` [THZ531]: the IC50 with HEK293T-eGFP cells (setting [2]) was 352 nM.
As for `CC[C@@H]1C(=O)N(C)c2cnc(Nc3ccc(C(=O)N[C@H]4CC[C@H](N5CCN(CC6CC6)CC5)CC4)cc3OC)nc2N1C(C)C` [Volasertib], the IC50 in the assay with HEK293T-eGFP cells (setting [2]) came to 24.5 nM.
Still for that read-out and setting: the figure for `Oc1nc(-c2ccc(C(F)(F)F)cc2)nc2c1CSCC2` [XAV-939] is more than 10000 nM.
Turning to Karonudib, the IC50 in the assay with HEK293T-eGFP cells (setting [3]) came out at 450 nM.

Source of the values: article PMC12469161, “Anti-cancer compound screening identifies Aurora Kinase A inhibition as a means to favor CRISPR/Cas9 gene correction over knock-out” (PLOS One, 2025).
